# Experimental data from BindingDB's records for patent US10821115 (Amgen, 2020).
# “And” between values parts separate entries of the source, which are not always exact repeats. Identical values can stand only once.
# Biological target: T1, Induced myeloid leukemia cell differentiation protein Mcl-1 [171-327] (Homo sapiens, UniProt Q07820)
# T1 construct: 171-327
# Assay: Time-Resolved Fluorescence Resonance Energy Transfer (TR-FRET) Assay
# Description: The inhibition of the Mcl-1/Bim interaction was measured using a time-resolved fluorescence resonance energy transfer (TR-FRET) assay. […] A biotinylated peptide derived from human Bim (residues 51-76) was purchased from CPC Scientific (San Jose, Calif.). The TR-FRET assay was conducted in a 384-well white OptiPlate (PerkinElmer, Waltham, Mass.) in a total volume of 40 uL. […] The reaction plates were further incubated overnight and then were read on an Envision multimode reader (PerkinElmer). […] The IC50 values of test compounds were determined from duplicate data by analyzing competition curves using a four-parameter sigmoidal model in GraphPad Prism.
# T1 sequence (Q07820 171-327): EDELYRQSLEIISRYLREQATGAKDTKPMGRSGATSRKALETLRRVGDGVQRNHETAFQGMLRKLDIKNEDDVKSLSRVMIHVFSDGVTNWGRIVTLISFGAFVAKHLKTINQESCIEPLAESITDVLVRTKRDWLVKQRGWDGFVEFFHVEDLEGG
row,Compound,IC50
1,"C[C@@H]1[C@@H](C)C/C=C/[C@@](O)(c2ccc(F)nc2)[C@@H]2CC[C@H]2CN2C[C@@]3(CCCc4cc(Cl)ccc43)COc3ccc(cc32)C(=O)NS1(=O)=O (single isomer, unassigned) [US10821115, Example 100420]",0.112 nM
2,"CO[C@@]1(CN2CCN(CCS(C)(=O)=O)CC2)/C=C/C[C@H](C)[C@@H](C)S(=O)(=O)NC(=O)c2ccc3c(c2)N(C[C@@H]2CC[C@H]21)C[C@@]1(CCCc2cc(Cl)ccc21)CO3 [US10821115, Example 81]",0.14 nM
3,"CO[C@]1(CN2CCN(CC(F)(F)F)CC2)/C=C/C[C@H](C)[C@@H](C)S(=O)(=O)NC(=O)c2ccc3c(c2)N(C[C@@H]2CC[C@H]21)C[C@@]1(CCCc2cc(Cl)ccc21)CO3 [US10821115, Example 93]",0.53 nM
4,"CCO[C@]1(CN2CCN(C(COC)COC)CC2)/C=C/C[C@H](C)[C@@H](C)S(=O)(=O)NC(=O)c2ccc3c(c2)N(C[C@@H]2CC[C@H]21)C[C@@]1(CCCc2cc(Cl)ccc21)CO3 [US10821115, Example 116]",0.244 nM
5,"CO[C@@]1(CN2CCN(C3CCOCC3)CC2)/C=C/C[C@H](C)[C@@H](C)S(=O)(=O)NC(=O)c2ccc3c(c2)N(C[C@@H]2CC[C@H]21)C[C@@]1(CCCc2cc(Cl)ccc21)CO3 [US10821115, Example 262]",0.093 nM
6,"CO[C@@]1(CN2CCC(N3CCOCC3)CC2)/C=C/C[C@H](C)[C@@H](C)S(=O)(=O)NC(=O)c2ccc3c(c2)N(C[C@@H]2CC[C@H]21)C[C@@]1(CCCc2cc(Cl)ccc21)CO3 [US10821115, Example 263]",0.147 nM
7,"CO[C@@]1(CN2CCN([C@H]3CCOC(=O)C3)CC2)/C=C/C[C@H](C)[C@@H](C)S(=O)(=O)NC(=O)c2ccc3c(c2)N(C[C@@H]2CC[C@H]21)C[C@@]1(CCCc2cc(Cl)ccc21)CO3 [US10821115, Example 271]",0.031 nM
8,"CO[C@@]1(CN2CCN([C@H](CCO)CC(=O)O)CC2)/C=C/C[C@H](C)[C@@H](C)S(=O)(=O)NC(=O)c2ccc3c(c2)N(C[C@@H]2CC[C@H]21)C[C@@]1(CCCc2cc(Cl)ccc21)CO3 [US10821115, Example 278]",0.039 nM
9,"COCC(COC)N1CCN(C[C@]2(OC)/C=C/C[C@H](C)[C@@H](C)S(=O)(=O)NC(=O)c3ccc4c(c3)N(C[C@@H]3CC[C@H]32)C[C@@]2(CCCc3cc(Cl)ccc32)CO4)CC1 [US10821115, Example 287]",0.137 nM
10,"COCCN(CCOC)C1CCN(C[C@]2(OC)/C=C/C[C@H](C)[C@@H](C)S(=O)(=O)NC(=O)c3ccc4c(c3)N(C[C@@H]3CC[C@H]32)C[C@@]2(CCCc3cc(Cl)ccc32)CO4)CC1 [US10821115, Example 308]",0.111 nM
11,"CO[C@@]1(CN2CCN(CC(CO)CO)CC2)/C=C/C[C@H](C)[C@@H](C)S(=O)(=O)NC(=O)c2ccc3c(c2)N(C[C@@H]2CC[C@H]21)C[C@@]1(CCCc2cc(Cl)ccc21)CO3 [US10821115, Example 310]",0.117 nM
12,"CCO[C@@]1(CN2CCN(C3(C)COC3)CC2)/C=C/C[C@H](C)[C@@H](C)S(=O)(=O)NC(=O)c2ccc3c(c2)N(C[C@@H]2CC[C@H]21)C[C@@]1(CCCc2cc(Cl)ccc21)CO3 [US10821115, Example 311]",0.324 nM
13,"CCO[C@@]1(CN2CCC(N(CCOC)CCOC)CC2)/C=C/C[C@H](C)[C@@H](C)S(=O)(=O)NC(=O)c2ccc3c(c2)N(C[C@@H]2CC[C@H]21)C[C@@]1(CCCc2cc(Cl)ccc21)CO3 [US10821115, Example 312]",0.576 nM
14,"CO[C@]1(CN2CCN(C3(C)COC3)CC2)/C=C/C[C@H](C)[C@@H](C)S(=O)(=O)NC(=O)c2ccc3c(c2)N(C[C@@H]2CC[C@H]21)C[C@@]1(CCCc2cc(Cl)ccc21)CO3 [US10821115, Example 319]",0.081 nM
15,"CO[C@@]1(CC(=O)N(C)C)/C=C/C[C@H](C)[C@@H](C)S(=O)(=O)NC(=O)c2ccc3c(c2)N(C[C@@H]2CC[C@H]21)C[C@@]1(CCCc2cc(Cl)ccc21)CO3 [US10821115, Example 100135]",0.173 nM
16,"CO[C@]1(c2cccnc2F)/C=C/C[C@H](C)[C@@H](C)S(=O)(=O)NC(=O)c2ccc3c(c2)N(C[C@@H]2CC[C@H]21)C[C@@]1(CCCc2cc(Cl)ccc21)CO3 [US10821115, Example 100324]",0.244 nM and 0.182 nM
17,"CO[C@]1(c2cccc(F)n2)/C=C/C[C@H](C)[C@@H](C)S(=O)(=O)NC(=O)c2ccc3c(c2)N(C[C@@H]2CC[C@H]21)C[C@@]1(CCCc2cc(Cl)ccc21)CO3 [US10821115, Example 100339]",0.779 nM
18,"CCN(CC)C(=O)C[C@]1(OC)/C=C/C[C@H](C)[C@@H](C)S(=O)(=O)NC(=O)c2ccc3c(c2)N(C[C@@H]2CC[C@H]21)C[C@@]1(CCCc2cc(Cl)ccc21)CO3 [US10821115, Example 100347]",0.689 nM
19,"CO[C@@]1(c2cccnn2)/C=C/C[C@H](C)[C@@H](C)S(=O)(=O)N(C)C(=O)c2ccc3c(c2)N(C[C@@H]2CC[C@H]21)C[C@@]1(CCCc2cc(Cl)ccc21)CO3 [US10821115, Example 100350]",0.489 nM
20,"CO[C@@]1(CC(=O)N(C)C2CC2)/C=C/C[C@H](C)[C@@H](C)S(=O)(=O)NC(=O)c2ccc3c(c2)N(C[C@@H]2CC[C@H]21)C[C@@]1(CCCc2cc(Cl)ccc21)CO3 [US10821115, Example 100374]",0.289 nM
21,"C[C@@H]1[C@@H](C)C/C=C/[C@](O)(C#CCCc2ccccn2)[C@@H]2CC[C@H]2CN2C[C@@]3(CCCc4cc(Cl)ccc43)COc3ccc(cc32)C(=O)NS1(=O)=O [US10821115, Example 100455]",0.087 nM
22,"CO[C@@]1(CC(=O)NCCO)/C=C/C[C@H](C)[C@@H](C)S(=O)(=O)NC(=O)c2ccc3c(c2)N(C[C@@H]2CC[C@H]21)C[C@@]1(CCCc2cc(Cl)ccc21)CO3 [US10821115, Example 100465]",0.121 nM
23,"COC(=O)C(C)(C)NC(=O)C[C@]1(OC)/C=C/C[C@H](C)[C@@H](C)S(=O)(=O)NC(=O)c2ccc3c(c2)N(C[C@@H]2CC[C@H]21)C[C@@]1(CCCc2cc(Cl)ccc21)CO3 [US10821115, Example 100544]",0.171 nM
24,"CO[C@@]1(CC(=O)NC(C)(C)C(=O)O)/C=C/C[C@H](C)[C@@H](C)S(=O)(=O)NC(=O)c2ccc3c(c2)N(C[C@@H]2CC[C@H]21)C[C@@]1(CCCc2cc(Cl)ccc21)CO3 [US10821115, Example 100546]",0.084 nM
25,"COC(=O)CNC(=O)C[C@]1(OC)/C=C/C[C@H](C)[C@@H](C)S(=O)(=O)NC(=O)c2ccc3c(c2)N(C[C@@H]2CC[C@H]21)C[C@@]1(CCCc2cc(Cl)ccc21)CO3 [US10821115, Example 100550]",0.059 nM
26,"CO[C@@]1(CC(=O)NCc2ncco2)/C=C/C[C@H](C)[C@@H](C)S(=O)(=O)NC(=O)c2ccc3c(c2)N(C[C@@H]2CC[C@H]21)C[C@@]1(CCCc2cc(Cl)ccc21)CO3 [US10821115, Example 100577]",0.045 nM
27,"COC(=O)[C@H](NC(=O)C[C@]1(OC)/C=C/C[C@H](C)[C@@H](C)S(=O)(=O)NC(=O)c2ccc3c(c2)N(C[C@@H]2CC[C@H]21)C[C@@]1(CCCc2cc(Cl)ccc21)CO3)[C@@H](C)O [US10821115, Example 100581]",0.363 nM
28,"CO[C@@]1(CC(N)=O)/C=C/C[C@H](C)[C@@H](C)S(=O)(=O)NC(=O)c2ccc3c(c2)N(C[C@@H]2CC[C@H]21)C[C@@]1(CCCc2cc(Cl)ccc21)CO3 [US10821115, Example 100589]",1.83 nM
